From paper PMC13464545, “Mouse Norovirus Uses Host Metabolites to Enhance Receptor Binding and Evade Immune Recognition” (Medical research archives, 2022)

Target: T1, MNV P domain (Murine norovirus 1, UniProt Q80J94)
T1 construct: gene ORF2; C-terminal protruding (P) domain of VP1, expressed as soluble form without the shell domain; dimerizes
Test: isothermal titration calorimetry
Type: binding

T1 sequence (Q80J94 229-541): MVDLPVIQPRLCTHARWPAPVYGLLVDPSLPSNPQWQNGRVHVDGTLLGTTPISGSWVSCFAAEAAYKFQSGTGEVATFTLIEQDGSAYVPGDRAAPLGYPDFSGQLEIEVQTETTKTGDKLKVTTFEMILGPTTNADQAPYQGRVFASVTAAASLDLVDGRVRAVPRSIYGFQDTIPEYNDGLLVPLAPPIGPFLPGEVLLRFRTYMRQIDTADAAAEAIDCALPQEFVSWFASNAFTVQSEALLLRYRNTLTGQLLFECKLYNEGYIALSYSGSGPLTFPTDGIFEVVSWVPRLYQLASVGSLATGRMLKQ

C[C@H](CCC(=O)NCC(=O)O)[C@H]1CC[C@H]2[C@@H]3[C@H](O)C[C@@H]4C[C@H](O)CC[C@]4(C)[C@H]3CC[C@]12C [GCDCA]
Kd: ~13 µM
